Patent US20190364899A1, “MICROBIOCIDAL OXADIAZOLE DERIVATIVES” (SYNGENTA PARTICIPATIONS AG, priority 2015, published 2019)
Where two headings read alike, the source gives them in different places.

Assays:
[1] = tested on: Puccinia recondita f, Sp. Tritici; test: Fungicidal activity against Puccinia recondita f. sp. tritici / wheat / leaf disc preventative (brown rust); assay type: in vivo; details: foliar, 200 ppm in the applied formulation, wheat leaf segments cv. Kanzler, inoculated 1 day after application, compared to untreated, read-out: disease control
Protocol: (§1) General examples of leaf disk tests in well plates: Leaf disks or leaf segments of various plant species are cut from plants grown in a greenhouse. The cut leaf disks or segments are placed in multiwell plates (24-well format) onto water agar. The leaf disks are sprayed with a test solution before (preventative) or after (curative) inoculation. Compounds to be tested are prepared as DMSO solutions (max. 10 mg/ml) which are diluted to the appropriate concentration with 0.025% Tween20 just before spraying. The inoculated leaf disks or segments are incubated under defined conditions (temperature, relative humidity, light, etc.) according to the respective test system. A single evaluation of disease level is carried out 3 to 14 days after inoculation, depending on the pathosystem. Percent disease control relative to the untreated check leaf disks or segments is then calculated. General examples of liquid culture tests in well plates: Mycelia fragments or conidia suspensions of a fungus prepared either freshly from liquid cultures of the fungus or from cryogenic storage, are directly mixed into nutrient broth. DMSO solutions of the test compound (max. 10 mg/ml) are diluted with 0.025% Tween20 by a factor of 50 and 10 μl of this solution is pipetted into a microtiter plate (96-well format). The nutrient broth containing the fungal spores/mycelia fragments is then added to give an end concentration of the tested compound. The test plates are incubated in the dark at 24° C. and 96% relative humidity. The inhibition of fungal growth is determined photometrically after 2 to 7 days, depending on the pathosystem, and percent antifungal activity relative to the untreated check is calculated.
Example 1: Fungicidal Activity Against Puccinia recondita f, Sp. Tritici/Wheat/Leaf Disc Preventative (Brown Rust)
Wheat leaf segments cv. Kanzler were placed on agar in multiwell plates (24-well format) and sprayed with the formulated test compound diluted in water. The leaf disks were inoculated with a spore suspension of the fungus 1 day after application. The inoculated leaf segments were incubated at 19° C. and 75% relative humidity (rh) under a light regime of 12 hours light/12 hours darkness in a climate cabinet and the activity of a compound was assessed as percent disease control compared to untreated when an appropriate level of disease damage appears in untreated check leaf segments (7 to 9 days after application).
(§2) The following compounds at 200 ppm in the applied formulation give at least 80% disease control in this test when compared to untreated control leaf disks under the same conditions, which show extensive disease development.

[2] = tested on: Glomerella Lagenarium (Colletotrichum Lagenarium); test: Fungicidal activity against Glomerella lagenarium (Colletotrichum lagenarium) liquid culture / cucumber / preventative (anthracnose); assay type: cell-based; details: Colletotrichum orbiculare, read-out: disease control
Protocol: as §1
Example 4: Fungicidal Activity Against Glomerella Lagenarium (Colletotrichum Lagenarium) Liquid Culture/Cucumber/Preventative (Anthracnose)
Conidia of the fungus from cryogenic storage are directly mixed into nutrient broth (PDB—potato dextrose broth). After placing a (DMSO) solution of test compound into a microtiter plate (96-well format), the nutrient broth containing the fungal spores is added. The test plates are incubated at 24° C. and the inhibition of growth is measured photometrically 3 to 4 days after application.
The following compounds at 20 ppm in the applied formulation give at least 80% disease control in this test when compared to untreated control under the same conditions, which show extensive disease development.

[3] = tested on: Puccinia Recondite f. Sp. Tritici; test: Fungicidal activity against Puccinia recondita f. sp. tritici / wheat / leaf disc curative (brown rust); assay type: in vivo; details: foliar, 24 h, 200 ppm in the applied formulation, wheat leaf segments cv. Kanzler, applied 1 day after inoculation, compared to untreated, read-out: disease control
Protocol: as §1
Example 2: Fungicidal Activity Against Puccinia Recondite f. Sp. Tritici Wheat/Leaf Disc Curative (Brown Rust)
Wheat leaf segments cv. Kanzler are placed on agar in multiwell plates (24-well format). The leaf segments are then inoculated with a spore suspension of the fungus. Plates were stored in darkness at 19° C. and 75% relative humidity. The formulated test compound diluted in water was applied 1 day after inoculation. The leaf segments were incubated at 19° C. and 75% relative humidity under a light regime of 12 hours light/12 hours darkness in a climate cabinet and the activity of a compound was assessed as percent disease control compared to untreated when an appropriate level of disease damage appears in untreated check leaf segments (6 to 8 days after application).
as §2

Phakopsora pachyrhizi = test: Fungicidal activity against Phakopsora pachyrhizi / soybean / leaf disc preventative (Asian soybean rust); assay type: in vivo; details: foliar, 200 ppm in the applied formulation, soybean leaf disks, inoculated one day after application, compared to untreated, read-out: disease control
Protocol: as §1
Example 3: Fungicidal Activity Against Phakopsora pachyrhizi/Soybean/Leaf Disc Preventative (Asian Soybean Rust)
Soybean leaf disks are placed on water agar in multiwell plates (24-well format) and sprayed with the formulated test compound diluted in water. One day after application leaf discs are inoculated by spraying a spore suspension on the lower leaf surface. After an incubation period in a climate cabinet of 24-36 hours in darkness at 20° C. and 75% rh leaf disc are kept at 20° C. with 12 h light/day and 75% rh. The activity of a compound is assessed as percent disease control compared to untreated when an appropriate level of disease damage appears in untreated check leaf disks (12 to 14 days after application).
as §2

[4] = 20 ppm in the applied formulation, liquid culture in PDB, growth inhibition measured photometrically 3 to 4 days after application, compared to untreated

Structure (SMILES)	pest or weed control at 200 ppm [1] [%]	inhibition of growth at 20 ppm [2, 4] [%]	inhibition of growth at 20 ppm [2] [%]	pest or weed control at 200 ppm [3] [%]	pest or weed control at 200 ppm (Phakopsora pachyrhizi) [%]
O=C(NCc1ccc(-c2noc(C(F)(F)F)n2)cc1)OCc1ccccc1 [Compound 1.4, benzyl N-[[4-[5-(trifluoromethyl)-1,2,4-oxadiazol-3-yl]phenyl]methyl] carbamate]	≥ 80	≥ 80	–	–	–
O=C(NCc1ccc(-c2noc(C(F)(F)F)n2)cn1)Oc1ccccc1 [Compound 1.5, phenyl N-[[5-[5-(trifluoromethyl)-1,2,4-oxadiazol-3-yl)-2-pyridyl]methyl] carbamate]	–	–	≥ 80	–	–
O=C(NCc1ccc(-c2noc(C(F)(F)F)n2)cn1)OCc1ccccc1 [Compound 1.6, benzyl N-[[5-[5-(trifluoromethyl)-l,2,4-oxadiazol-3-yl]-2-pyridyl]methyl] carbamate]	≥ 80	≥ 80	–	≥ 80	–
O=C(NCc1ccc(-c2noc(C(F)(F)F)n2)cn1)Nc1ccccc1 [Compound 2.5, 1-phenyl-3-[[5-[5-(trifluoromethyl)-1,2,4-oxadiazol-3-yl]-2-pyridyl]methyl]urea]	≥ 80	≥ 80	–	–	–
O=C(NCc1ccc(-c2noc(C(F)(F)F)n2)cc1)NC1CCCCC1 [Compound 2.6, 1-cyclohexyl-3-[[4-[5-(trifluoromethyl)-1,2,4-oxadiazol-3-yl]phenyl]methyl]urea]	–	–	–	–	≥ 80
O=C(NCc1ccc(-c2noc(C(F)(F)F)n2)cc1)Nc1ccccc1 [Compound 2.7, 1-phenyl-3-[[4-[5-(trifluoromethyl)-1,2,4-oxadiazol-3-yl]phenyl]methyl]urea]	≥ 80	≥ 80	–	–	≥ 80
O=C(NCc1ccccc1)NCc1ccc(-c2noc(C(F)(F)F)n2)cc1 [Compound 2.8, 1-benzyl-3-[[4-[5-(trifluoromethyl)-1,2,4-oxadiazol-3-yl]phenyl]methyl]urea]	≥ 80	≥ 80	–	–	–
O=C(NCc1ccc(-c2noc(C(F)(F)F)n2)cc1)NC1CCC1 [Compound 2.9, 1-cyclobutyl-3-[[4-[5-(trifluoromethyl)-1,2,4-oxadiazol-3-yl]phenyl]methyl]urea]	≥ 80	≥ 80	–	–	–
O=C(NCc1ccc(-c2noc(C(F)(F)F)n2)cc1)NC1CCCC1 [Compound 2.10, 1-cyclopentyl-3-[[4-[5-(trifluoromethyl)-1,2,4-oxadiazol-3-yl]phenyl]methyl]urea]	≥ 80	≥ 80	–	–	–
O=C(NCc1ccc(-c2noc(C(F)(F)F)n2)cc1)NCc1ccco1 [Compound 2.11, 1-(2-furylmethyl)-3-[[4-[5-(trifluoromethyl)-l,2,4-oxadiazol-3-yl]phenyl]methyl]urea]	–	≥ 80	–	–	–
O=C(NCc1ccccc1)NCc1ccc(-c2noc(C(F)(F)F)n2)cn1 [Compound 2.12, 1-benzyl-3-[[5-[5-(trifluoromethyl)-1,2,4-oxadiazol-3-yl]-2-pyridyl]methyl]urea]	≥ 80	≥ 80	–	–	–
O=C(NCc1ccc(-c2noc(C(F)(F)F)n2)cn1)Nc1ccc(F)cc1 [Compound 2.13, 1-(4-fluorophenyl)-3-[[5-[5-(trifluoromethyl)-1,2,4-oxadiazol-3-yl]-2-pyridyl]methyl]urea]	≥ 80	–	–	–	–
O=C(NCc1ccc(-c2noc(C(F)(F)F)n2)cn1)Nc1ccc(Cl)cc1 [Compound 2.15, 1-(4-chlorophenyl)-3-[[5-[5-(trifluoromethyl)-1,2,4-oxadiazol-3-yl]-2-pyridyl]methyl]urea]	≥ 80	≥ 80	–	–	–
O=C(NCc1ccc(-c2noc(C(F)(F)F)n2)cn1)NCc1ccco1 [Compound 2.16]	≥ 80	≥ 80	–	–	–
O=C(NCc1ccc(-c2noc(C(F)(F)F)n2)cn1)Nc1cccc(F)c1 [Compound 2.17, 1-(3-fluorophenyl)-3-[[5-[5-(trifluoromethyl)-1,2,4-oxadiazol-3-yl]-2-pyridyl]methyl]urea]	≥ 80	≥ 80	–	≥ 80	≥ 80
O=C(NCc1ccc(-c2noc(C(F)(F)F)n2)cn1)Nc1ccccc1F [Compound 2.18, 1-(2-fluorophenyl)-3-[[5-[5-(trifluoromethyl)-1,2,4-oxadiazol-3-yl]-2-pyridyl]methyl]urea]	≥ 80	≥ 80	–	–	–
O=C(NCc1ccc(-c2noc(C(F)(F)F)n2)cn1)Nc1ccccc1Cl [Compound 2.19, 1-(2-chlorophenyl)-3-[[5-[5-(trifluoromethyl)-1,2,4-oxadiazol-3-yl]-2-pyridyl]methyl]urea]	≥ 80	≥ 80	–	–	≥ 80
CN(C(=O)NCc1ccc(-c2noc(C(F)(F)F)n2)cc1)C1CC1 [Compound 2.22, 1-cyclopropyl-1-methyl-3-[[4-[5-(trifluoromethyl)-1,2,4-oxadiazol-3-yl]phenyl]methyl]urea]	≥ 80	≥ 80	–	≥ 80	≥ 80
O=C(NCc1ccc(-c2noc(C(F)(F)F)n2)cc1)NC1COC1 [Compound 2.23, 1-(oxetan-3-yl)-3-[[4-[5-(trifluoromethyl)-1,2,4-oxadiazol-3-yl]phenyl]methyl]urea]	≥ 80	–	–	–	≥ 80
N#CC1(NC(=O)NCc2ccc(-c3noc(C(F)(F)F)n3)cc2)CC1 [Compound 2.24, 1-(1-cyanocyclopropyl)-3-[[4-[5-(trifluoromethyl)-1,2,4-oxadiazol-3-yl]phenyl]methyl]urea]	≥ 80	–	–	≥ 80	≥ 80
CC1(NC(=O)NCc2ccc(-c3noc(C(F)(F)F)n3)cc2)CC1 [Compound 2.25, 1-(1-methylcyclopropyl)-3-[[4-[5-(trifluoromethyl)-1,2,4-oxadiazol-3-yl]phenyl]methyl]urea]	–	–	–	–	≥ 80
CN(C(=O)NCc1ccc(-c2noc(C(F)(F)F)n2)cc1)C1CCC1 [Compound 2.26, 1-cyclobutyl-1-methyl-3-[[4-[5-(trifluoromethyl)-1,2,4-oxadiazol-3-yl]phenyl]methyl]urea]	≥ 80	≥ 80	–	≥ 80	≥ 80
CCN(CC1CC1)C(=O)NCc1ccc(-c2noc(C(F)(F)F)n2)cc1 [Compound 2.29, 1-(cyclopropylmethyl)-l-ethyl-3-[[4-[5-(trifluoromethyl)-1,2,4-oxadiazol-3-yl]phenyl]methyl]urea]	≥ 80	≥ 80	–	–	≥ 80
